Data from paper PMC6273229, “Imidazopyranotacrines as Non-Hepatotoxic, Selective Acetylcholinesterase Inhibitors, and Antioxidant Agents for Alzheimer′s Disease Therapy” (Molecules, 2016).
Where two headings read alike, the source gives them in different places.

Tests used:
HepG2 cells = type: cell-based; details: for Cell viability (MTT reduction, % control): 24 h, mean ± S.E.M.; for hepatotoxicity on HepG2 cells (in words): cell viability assay, 1–1000 µM
Description: The human hepatoma HepG2 line cells were purchased from American Type Culture Collection. The cells were cultured in Eagle’s Minimum Essential Medium (Ozyme, Montigny-le-Bretonneux, France) supplemented with 10% fetal bovine serum, 1X non-essential amino acids, 100 units/mL penicillin and […] streptomycin (Dutscher, Brumath, France). […] Prior to the experiment, cells were seeded in 96-well culture plates at a density of 0.1 × 10^6 cells per well. After 24 h of incubation, the culture medium was refreshed and 100 µL of the test compounds or DMSO (0.1%) were added. Compounds were tested at 7 concentrations (1–1000 µM) in triplicate.
Cell viability, measured as the mitochondrial activity of living cells, was determined by quantitative colorimetric assay with 3-[4,5 dimethylthiazol-2-yl]-2,5-diphenyl-tetrazolium bromide (MTT). Briefly, after 24 h of treatment, cells were incubated with 50 µL MTT (0.5 mg/mL, Sigma Aldrich) at 37 °C for 2 h. Plates were centrifuged, MTT was removed and 100 µL DMSO was distributed per well. The absorbance was read at 570 nm by microplate spectrophotometry. Cell viability was expressed as percentage over controls (DMSO, 0.1%).

[1] = ORAC-FL, Trolox equivalents, cited from earlier work
[2] = Oxygen radical absorbance capacity by fluorescence (ORAC-FL); details: Trolox equivalents, mean ± SD
Description: The antioxidant power of the imidazopyranotacrines 1–13 was determined by the oxygen radical absorbance capacity by fluorescence (ORAC-FL) method using fluorescein as fluorescent probe and Trolox (6-hydroxy-2,5,7,8-tetramethylchroman-2-carboxylic acid) as a reference compound. Results are expressed as Trolox equivalents (μmol Trolox per μmol test compound).
The radical scavenging activity of imidazopyranotacrines 1–13 was determined by the ORAC-FL method using a Varioskan Flash plate reader with built-in injectors (Thermo Scientific). Trolox, 2,2′-azobis(amidinopropane) dihydrochloride (AAPH) and fluorescein (FL) were purchased from Sigma-Aldrich. The reaction was performed at 37 °C in 75 mM phosphate buffer (pH = 7.4), and the final volume reaction mixture was 200 µL. The final concentrations were 1–8 µM for Trolox and 0.1–1 µM for the tested compounds. Briefly, in a black 96-well microplate (Nunc), antioxidant (20 µL) and fluorescein (120 µL) were incubated for 15 min at 37 °C. Then, 2,2′-azobis(amidinopropane) dihydrochloride (60 µL) was added using the built-in injector. […] All assays were made in triplicate and at least three different assays were performed for each sample.
The net AUC corresponding to a sample was calculated as follows: Net AUC = AUCantioxidant − AUCblank(2)
Regression equations were calculated by plotting the net AUC against the antioxidant concentration. The ORAC value was obtained by dividing the slope of the latter curve by the slope of the Trolox curve obtained in the same assay. ORAC values was expressed as µmol of Trolox equivalent/µmol of imidazopyranotacrines. Data are expressed as mean ± SD.

[3] = biological target: T1, BuChE from horse serum (eqBuChE) (Equus caballus, UniProt P81908); experiment: biochemical; details: mean ± SEM
T1 construct: BuChE from horse serum (lyophilized powder, Sigma-Aldrich); purchased Sigma-Aldrich; host or cells: horse serum
T1 sequence (P81908 whole entry): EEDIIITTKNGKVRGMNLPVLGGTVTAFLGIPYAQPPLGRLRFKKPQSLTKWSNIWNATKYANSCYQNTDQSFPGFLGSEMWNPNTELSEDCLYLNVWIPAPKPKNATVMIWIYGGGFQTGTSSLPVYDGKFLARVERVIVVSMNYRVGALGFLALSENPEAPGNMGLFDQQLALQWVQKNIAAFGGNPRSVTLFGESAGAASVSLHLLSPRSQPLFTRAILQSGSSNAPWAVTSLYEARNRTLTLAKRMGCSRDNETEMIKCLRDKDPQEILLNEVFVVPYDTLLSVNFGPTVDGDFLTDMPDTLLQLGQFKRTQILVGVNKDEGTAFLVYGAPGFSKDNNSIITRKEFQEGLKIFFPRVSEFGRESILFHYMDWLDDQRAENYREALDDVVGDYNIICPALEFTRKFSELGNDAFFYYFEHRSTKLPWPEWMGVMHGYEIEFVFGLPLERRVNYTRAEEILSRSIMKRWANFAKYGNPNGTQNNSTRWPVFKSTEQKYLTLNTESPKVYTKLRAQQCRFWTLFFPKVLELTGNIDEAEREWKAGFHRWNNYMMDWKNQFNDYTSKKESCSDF
Description: The % inhibitory activity on BuChE from horse serum (lyophilized powder, Sigma-Aldrich), was evaluated spectrophotometrically by the method of Ellman et al.. BuChE stock solutions were first dissolved in 0.1 M phosphate buffer (pH 8.0) and then aliquoted in small vials. Compounds were dissolved in DMSO at 10 mM. The reaction was carried out in a final volume of 3 mL of a 0.1 M phosphate-buffered solution at pH 8.0, containing 5,5′-dithiobis-2-nitrobenzoic acid (DTNB, 2625 µL, 0.35 mM, final concentration), eqBuChE (60 µL, 0.05 U/mL final concentration), tested compound (3 µL, 10 µM, final concentration) and 1% w/v Bovine Serum Albumin phosphate-buffered (pH 8.0) solution (BSA, 40 µL). The inhibition with respect to control without compound was determined by pre-incubating this mixture at rt with each compound for 10 min. After this period, butyrylthiocholine iodide (150 µL, 0.5 mM final concentration) was added and incubated for 15 min at rt.

[4] = biological target: AChE from Electrophorus electricus (EeAChE) (Electrophorus electricus, UniProt O42275); experiment: biochemical
Chain of AChE from Electrophorus electricus (EeAChE) (O42275 24-633): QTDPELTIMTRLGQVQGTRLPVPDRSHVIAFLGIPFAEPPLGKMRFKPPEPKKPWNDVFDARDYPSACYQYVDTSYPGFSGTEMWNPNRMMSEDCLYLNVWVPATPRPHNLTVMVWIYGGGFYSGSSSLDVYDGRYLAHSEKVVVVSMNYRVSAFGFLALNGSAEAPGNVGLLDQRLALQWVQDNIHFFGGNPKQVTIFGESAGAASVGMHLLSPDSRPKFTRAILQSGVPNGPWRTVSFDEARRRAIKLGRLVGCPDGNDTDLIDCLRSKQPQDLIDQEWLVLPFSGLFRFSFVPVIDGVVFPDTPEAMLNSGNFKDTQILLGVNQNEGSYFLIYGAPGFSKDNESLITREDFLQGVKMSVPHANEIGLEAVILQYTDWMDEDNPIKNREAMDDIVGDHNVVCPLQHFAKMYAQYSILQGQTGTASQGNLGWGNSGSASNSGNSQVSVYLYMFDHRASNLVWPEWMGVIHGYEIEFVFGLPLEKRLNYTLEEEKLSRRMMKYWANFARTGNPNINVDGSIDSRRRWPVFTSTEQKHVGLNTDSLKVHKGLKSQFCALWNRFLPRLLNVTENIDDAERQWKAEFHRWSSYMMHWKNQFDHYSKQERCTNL
Description: The inhibitory activity on AChE from Electrophorus electricus (type VI-S, Sigma, Milan, Italy), was evaluated spectrophotometrically by the method of Ellman et al.. AChE stock solution was prepared by dissolving EeAChE lyophilized powder (Sigma) in 0.1 M phosphate buffer (pH = 8.0) containing 0.1% Triton X-100. Stock solutions of the tested compounds (1 mM) were prepared in MeOH/H2O 50/50 (v/v) and diluted in MeOH/H2O 50/50 (v/v). […] Assay solutions with and without inhibitor were preincubated at 37 °C for 20 min followed by the addition of substrate. Blank solutions containing all components except EeAChE were prepared in parallel to account for the non-enzymatic hydrolysis of the substrate. Initial rate assays were performed at 37 °C with a Jasco V-530 double beam spectrophotometer. […] The velocity in the presence and absence of inhibitor were compared and % inhibition was calculated. The results were plotted by placing the percentage of inhibition in function of the decimal log of the final inhibitor concentration. Linear regression and IC50 values were calculated using Microcal Origin 3.5 software (Microcal Software, […]).

EeAChE = biological target: T2, EeAChE (Electrophorus electricus, UniProt O42275); experiment: Kinetic analysis of the inhibition of EeAChE (Lineweaver-Burk, Dixon, Cornish-Bowden plots); type: biochemical
T2 construct: purchased Sigma type VI-S
T2 sequence (O42275 24-633): as above
Description: . […] The non-competitive mechanism of action was confirmed by building the Cornish-Bowden plot (Figure 3B). Replots of the substrate/velocity versus the concentration of compound 8 provided an estimate of the non-competitive inhibition constant, which resulted equal to 4.10 μM. The non-competitive mechanism of action was confirmed by computational chemistry by performing the docking analysis of both enantiomers of compound 8 on AChE (see Supplementary Materials).
[…]. Four concentrations of inhibitor were selected for this study: 0.850, 2.124, 3.399, 6.798 μM. The plots were assessed by a weighted least-squares analysis that assumed the variance of the velocity (v) to be a constant percentage of v for the entire data set. Data analysis was performed with GraphPad Prism 4.03 software (GraphPad Software Inc., San Diego, CA, USA). The determination of the non-competitive inhibition constant Ki value was carried out using Dixon plot, i.e., plotting the apparent 1/v vs. inhibitor concentration [I] [34] and confirmed by Cornish-Bowden plot ([substrate]/v vs. [I]).

Row | SMILES | Cell viability (MTT reduction, % control) (HepG2 cells; HepG2, 1 µM) [% control] | Cell viability (MTT reduction, % control) (HepG2 cells; HepG2, 3 µM) [% control] | Cell viability (MTT reduction, % control) (HepG2 cells; HepG2, 10 µM) [% control] | Cell viability (MTT reduction, % control) (HepG2 cells; HepG2, 30 µM) [% control] | Cell viability (MTT reduction, % control) (HepG2 cells; HepG2, 100 µM) [% control] | Cell viability (MTT reduction, % control) (HepG2 cells; HepG2, 300 µM) [% control] | Cell viability (MTT reduction, % control) (HepG2 cells; HepG2, 1000 µM) [% control] | hepatotoxicity on HepG2 cells (in words) (HepG2 cells) | ORAC [1] | ORAC ([1]; listed as tacrine) [µmol Trolox/µmol compound] | ORAC [2] [µmol Trolox/µmol compound] | inhibition at 10 µM [3] [%] | IC50 [4] [µM] | mechanism of inhibition of EeAChE (EeAChE; Km unaltered, Vmax decreased) | Ki (EeAChE; substrate acetylthiocholine, estimate from Cornish-Bowden plot, read-out: non-competitive inhibition constant (Ki)) [µM]
1 | Nc1c2c(nc3ccccc13)CCCC2 [Tacrine] | 95.8 ± 2.2 | 100.4 ± 2.2 | 96.9 ± 3.9 | 97.7 ± 3.9 | 98.6 ± 3.8 | 39.2 ± 4.7 | 20.0 ± 2.1 | safe up to 100 µM | 0.20 ± 0.04 [28] µmol Trolox/µmol compound | 0.20 ± 0.04 | – | – | – | – | –
2 | Cn1ccnc1C1c2c(nc3c(c2N)CCCC3)Oc2ccc3ccccc3c21 (centres unmarked) [Compound 8, 14-(1-Methyl-1H-imidazol-2-yl)-9,11,12,14-tetrahydro-10H-benzo[5,6]chromeno[2,3-b]quinolin-13-amine] | 108.1 ± 5.4 | 101.3 ± 10.8 | 79.0 ± 9.1 | 57.6 ± 4.2 | 52.7 ± 3.3 | 51.2 ± 2.8 | 66.2 ± 6.8 | more toxic than tacrine | – | – | 1.88 ± 0.01 | 51.6 ± 0.6 | 6.73 ± 0.52 | non-competitive | 4.1
